Where two headings read alike, the source gives them in different places.
Legend:
[1] = molecular target: T1, soybean lipoxygenase (LOX-1) (Glycine max, UniProt P08170); experiment: Soybean lipoxygenase inhibition study; format: biochemical; conditions: for LOX inhibition (%): % inhibition at 100 µM
T1 construct: purchased Sigma Chemical, Co. (St Louis, MO, USA)
T1 sequence (P08170 1-839): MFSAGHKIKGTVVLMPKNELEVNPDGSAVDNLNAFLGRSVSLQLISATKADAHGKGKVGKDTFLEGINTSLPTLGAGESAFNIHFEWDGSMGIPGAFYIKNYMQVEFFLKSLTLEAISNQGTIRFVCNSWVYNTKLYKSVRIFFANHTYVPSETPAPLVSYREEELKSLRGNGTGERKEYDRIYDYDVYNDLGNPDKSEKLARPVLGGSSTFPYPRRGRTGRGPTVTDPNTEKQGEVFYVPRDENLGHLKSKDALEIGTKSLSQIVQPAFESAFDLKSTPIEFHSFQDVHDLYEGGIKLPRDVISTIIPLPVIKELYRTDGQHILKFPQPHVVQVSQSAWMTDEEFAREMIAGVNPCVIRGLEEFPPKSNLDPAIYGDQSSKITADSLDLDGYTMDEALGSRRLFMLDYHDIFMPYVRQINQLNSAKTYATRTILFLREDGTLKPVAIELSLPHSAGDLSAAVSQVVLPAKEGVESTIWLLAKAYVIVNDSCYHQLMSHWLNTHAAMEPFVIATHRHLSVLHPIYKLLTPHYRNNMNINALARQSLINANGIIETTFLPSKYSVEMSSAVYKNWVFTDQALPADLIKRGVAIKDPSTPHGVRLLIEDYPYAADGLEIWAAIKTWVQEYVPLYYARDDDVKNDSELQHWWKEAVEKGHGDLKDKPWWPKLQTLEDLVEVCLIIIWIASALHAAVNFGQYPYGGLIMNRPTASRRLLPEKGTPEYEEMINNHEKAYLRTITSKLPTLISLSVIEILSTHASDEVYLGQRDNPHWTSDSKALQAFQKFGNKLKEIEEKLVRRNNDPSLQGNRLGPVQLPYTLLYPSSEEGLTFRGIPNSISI
Experimental: Our group evaluated an in vitro study as reported previously. The tested hybrids were incubated at room temperature with sodium linoleate (100 µM) and 200 µL of enzyme solution (1/9 X 10^-4 w/v in saline). […] Different concentrations were used for the determination of IC50. A blank determination was used as a negative control.
Due to the limited work on sufficiently purified human ALOX-5 isoenzyme, most of the published research was performed on the soybean homolog. […] This study used the soybean isoenzyme LOX-1, which exerts maximal activity at pH 9.0 [72].

ovine COX-2 = molecular target: T2, ovine COX-2 (Ovis aries, UniProt P79208); experiment: Cyclooxygenase-2 inhibition study; format: biochemical; conditions: for IC50: read-out: COX-2 inhibition (IC50)
T2 construct: purchased Cayman (USA)
T2 sequence (P79208 17-603): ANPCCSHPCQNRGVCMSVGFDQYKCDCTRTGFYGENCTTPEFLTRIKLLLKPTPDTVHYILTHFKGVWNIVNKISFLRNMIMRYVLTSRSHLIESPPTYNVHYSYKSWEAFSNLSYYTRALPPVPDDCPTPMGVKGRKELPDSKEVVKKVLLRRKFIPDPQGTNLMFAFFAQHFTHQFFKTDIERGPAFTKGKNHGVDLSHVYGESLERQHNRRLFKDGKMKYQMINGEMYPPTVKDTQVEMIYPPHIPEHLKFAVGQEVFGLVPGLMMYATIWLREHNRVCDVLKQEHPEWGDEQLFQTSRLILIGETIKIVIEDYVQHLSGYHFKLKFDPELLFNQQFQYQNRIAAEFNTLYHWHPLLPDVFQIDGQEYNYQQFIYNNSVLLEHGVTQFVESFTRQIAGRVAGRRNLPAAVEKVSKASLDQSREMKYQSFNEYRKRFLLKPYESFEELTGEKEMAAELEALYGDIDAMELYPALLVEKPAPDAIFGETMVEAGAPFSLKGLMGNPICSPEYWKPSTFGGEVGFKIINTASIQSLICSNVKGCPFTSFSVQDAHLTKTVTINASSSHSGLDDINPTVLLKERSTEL
Experimental: The in vitro study of cyclooxygenase (COX) activity was determined by using arachidonic acid (AA) as the substrate and N,N,N’,N’-tetramethylphenylenediamine (TMPD) as the co-substrate. […] The absorption due to the spontaneous oxidation of TMPD was subtracted from the initial rate of oxidation observed in the presence of AA. […] A blank determination was used first to serve as a negative control. Indomethacin was used as a reference COX-2 inhibitor (positive control).
The role of COX-2 in neurodegenerative diseases has been reported, and COX-2 inhibition is considered of high importance as a therapeutic tool. The designed derivatives were tested for their COX-2 inhibition activity on the ovine COX-2 enzyme. […] Indomethacin was used as a reference compound.

[2] = Inhibition of linoleic acid peroxidation (AAPH-induced)
Experimental: Our group evaluated the in vitro study as reported previously. Ten 16 mM sodium linoleate solution microliters were added to the UV cuvette containing 93 µL of a 0.05 M phosphate buffer, pH 7.4, and 10 µL of the tested compounds (final concentration 100 µM). The oxidation reaction started at 37 °C under air by adding 50 µL of the free radical initiator AAPH (40 mM). Oxidation was carried out and monitored at 234 nm. DMSO under the same conditions was used as a negative control. Trolox was used as the appropriate standard (positive control). The results are given in Table S1 in the supplementary material.
We used the water-soluble 2, 2’-azobis(2-amidinopropane) hydrochloride (AAPH) to generate in vitro peroxyl radicals through spontaneous thermal decomposition, which resembles cellular lipid peroxidation due to the activity of the undertaken radicals. The anti-lipid peroxidation activities were compared to a well-known antioxidant, i.e., Trolox (Table S1 in the supplementary material). […] In general, the anti-lipid peroxidation ranged from 8-99%. Except for acids 11, 12, 17, 19, 21, 22, 24, 25, and 28, which present high antioxidant activities (on the high % level), the other cinnamic acids present low or medium activity.

[3] = cited from earlier work
albumin = experiment: Albumin denaturation studies
Experimental: The synthesized compounds were evaluated for the inhibition of albumin denaturation. Test tubes containing 1 mL of albumin solution (1% w/v in phosphate buffer pH=7.4), buffer, and 20 μL of the tested compounds dissolved in DMSO are incubated at 37°C for 15 minutes (final concentration 100 µM). The incubation follows at 60°C for another 15 minutes to induce albumin denaturation. The samples are cooled to room temperature. Their absorbance was measured at 660 nm. DMSO was used as a blank solution and acetylsalicylic acid as a reference compound. The results are given in Table S1 in the supplementary material.
Protein denaturation has correlated well with the inflammatory response, leading to various inflammatory diseases. It is known that tissue injury during life might refer to the denaturation of cells' protein constituents or intercellular substances. […] Many anti-inflammatory drugs can inhibit the heat-coagulation of serum albumin [78]. Thus, the inhibition of albumin heat-coagulation activity of the designed molecules was examined in vitro [60] as a measure of their anti-inflammatory activity. The experimental results were compared to the standard drug, acetylsalicylic acid. […] The results are given in Table S1 in the supplementary material.

[4] = read-out: LOX inhibition (IC50)

O=C(O)/C=C/c1ccc(O)cc1 [Compound 25, p-coumaric acid]
IC50 [1]: 10 µM | IC50 (ovine COX-2): 62 µM | AAPH inhibition (%, at 100 µM) [2]: 76%

O=C(O)/C=C/c1ccc(OCc2ccc(Br)cc2)cc1 [Compound 11]
IC50 [1]: 100 µM | AAPH inhibition (%, at 100 µM) [3]: 84% | inhibition at 100 µM (ovine COX-2): 17%

COC(=O)CCC(NC(=O)C=Cc1ccc(O)c(O)c1)C(=O)OC (stereo not drawn) [Compound 28c]
IC50 [1, 4]: 8.5 µM | Albumin denaturation (%, at 100 µM) (albumin): 31% | inhibition at 100 µM (ovine COX-2): 19% | AAPH inhibition (%, at 100 µM) [2]: 87%

COC(=O)CCCNC(=O)/C=C/c1ccc(O)c(OC)c1 [Compound 24b]
IC50 [1, 4]: 100 µM | AAPH inhibition (%, at 100 µM) [2]: 34%

CCOC(=O)CNC(=O)/C=C/c1ccccc1 [Compound 22a]
LOX inhibition (%) [1]: 0% | IC50 (ovine COX-2): 5 µM | AAPH inhibition (%, at 100 µM) [2]: 5%

COC(=O)CCCNC(=O)/C=C/c1ccc2c(c1)OCO2 [Compound 20b]
IC50 [1, 4]: 67.5 µM | AAPH inhibition (%, at 100 µM) [2]: 9%

COC(=O)CC[C@H](NC(=O)/C=C/C=C/c1ccccc1)C(=O)OC [Compound 23c]
IC50 [1, 4]: 75 µM | COX-2 inhibition (%) (ovine COX-2; % inhibition at 100 µM): 47% | AAPH inhibition (%, at 100 µM) [2]: 25%

CCOC(=O)CNC(=O)/C=C/c1ccc(O)c(O)c1 [Compound 28a]
IC50 [1, 4]: 70 µM | inhibition at 100 µM (ovine COX-2): 17% | AAPH inhibition (%, at 100 µM) [2]: 47%

COC(=O)CC[C@H](NC(=O)/C=C/c1ccc(F)cc1)C(=O)OC [Compound 27c]
LOX inhibition (%) [1]: 8% | IC50 (ovine COX-2): 72.5 µM | AAPH inhibition (%, at 100 µM) [2]: 10%

CCOC(=O)CNC(=O)/C=C/c1ccc(C(F)(F)F)cc1 [Compound 13a]
LOX inhibition (%) [1]: 31% | AAPH inhibition (%, at 100 µM) [2]: 8%

COC(=O)CC[C@H](NC(=O)/C=C/c1ccc(OC)c(OC)c1)C(=O)OC [Compound 18c]
IC50 [1, 4]: 57.5 µM | AAPH inhibition (%, at 100 µM) [2]: 74%

COC(=O)CC[C@H](NC(=O)/C=C/c1cccc(Oc2ccccc2)c1)C(=O)OC [Compound 12c]
IC50 [1, 4]: 60 µM | AAPH inhibition (%, at 100 µM) [2]: 65%

O=C(O)/C=C/c1ccccc1 [Compound 22, cinnamic acid]
AAPH inhibition (%, at 100 µM) [3]: 78% | inhibition at 100 µM (ovine COX-2): 4%

CCOC(=O)CNC(=O)/C=C/c1cccc(Oc2ccccc2)c1 [Compound 12a]
LOX inhibition (%) [1]: 36% | IC50 (ovine COX-2): 55 µM | AAPH inhibition (%, at 100 µM) [2]: 48%

COC(=O)CCCNC(=O)/C=C/c1ccc(OCc2ccc(Br)cc2)cc1 [Compound 11b]
LOX inhibition (%) [1]: 30% | AAPH inhibition (%, at 100 µM) [2]: 19%

COc1ccc(OC)c(/C=C/C(=O)O)c1 [Compound 19]
IC50 [1, 4]: 60 µM | inhibition at 100 µM (ovine COX-2): 28% | AAPH inhibition (%, at 100 µM) [2]: 88%

— article PMC11348465, “Pharmacochemical Study of Multitarget Amino Acids’ Hybrids: Design, Synthesis, In vitro, and In silico Studies” (Medicinal Chemistry (Shariqah (United Arab Emirates), 2024)
